In one assay the target is PARP-1 (poly[ADP-ribose] polymerase 1) enzyme (Homo sapiens (Human), UniProt P09874). Description: PARP-1 (poly[ADP-ribose] polymerase 1) enzyme inhibitory ability, Trevigen assay kit. It counts as biochemical. To be noted: 1 nM compound; read-out: PAR P-1 Inhibitory ability at 1 nM. In outline: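 Human PARP-1 activity was measured with a Trevigen assay kit in histone-coated 96-well plates rehydrated with 50 μL of 1×PARP buffer for 30 minutes. Enzyme (0.5 unit/well) and compound were preincubated 10 minutes at room temperature, then 25 μL of 1×PARP cocktail with biotinylated NAD and activated DNA was added for 1 hour.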
Sequence of PARP-1 (poly[ADP-ribose] polymerase 1) enzyme (P09874 whole entry): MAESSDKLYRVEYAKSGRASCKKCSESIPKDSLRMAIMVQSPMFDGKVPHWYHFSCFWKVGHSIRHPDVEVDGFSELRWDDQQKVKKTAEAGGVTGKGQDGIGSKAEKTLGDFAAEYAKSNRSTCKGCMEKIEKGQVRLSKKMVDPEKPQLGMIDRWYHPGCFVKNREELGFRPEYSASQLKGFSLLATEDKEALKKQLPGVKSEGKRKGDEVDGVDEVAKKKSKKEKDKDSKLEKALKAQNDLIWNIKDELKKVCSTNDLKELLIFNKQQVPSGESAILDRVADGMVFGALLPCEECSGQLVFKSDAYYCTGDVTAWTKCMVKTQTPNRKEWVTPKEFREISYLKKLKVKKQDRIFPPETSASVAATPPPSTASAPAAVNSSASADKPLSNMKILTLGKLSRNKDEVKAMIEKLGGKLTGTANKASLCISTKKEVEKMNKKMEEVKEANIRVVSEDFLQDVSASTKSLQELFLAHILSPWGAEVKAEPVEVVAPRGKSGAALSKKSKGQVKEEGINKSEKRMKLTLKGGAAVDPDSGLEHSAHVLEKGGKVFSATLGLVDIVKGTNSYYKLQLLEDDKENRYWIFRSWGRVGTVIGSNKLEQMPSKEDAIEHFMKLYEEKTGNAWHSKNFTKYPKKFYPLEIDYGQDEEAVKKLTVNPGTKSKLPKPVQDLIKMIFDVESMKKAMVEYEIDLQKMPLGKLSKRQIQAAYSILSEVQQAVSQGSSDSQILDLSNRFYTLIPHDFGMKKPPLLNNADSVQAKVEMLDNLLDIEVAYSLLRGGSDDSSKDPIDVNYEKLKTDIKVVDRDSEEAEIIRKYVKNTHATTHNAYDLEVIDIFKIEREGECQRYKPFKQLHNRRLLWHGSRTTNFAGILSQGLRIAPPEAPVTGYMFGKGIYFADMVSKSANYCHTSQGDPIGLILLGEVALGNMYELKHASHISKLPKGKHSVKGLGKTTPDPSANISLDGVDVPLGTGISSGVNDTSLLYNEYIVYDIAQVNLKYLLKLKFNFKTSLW
`N#Cc1ccc(N2CCN(C(=O)CCc3cc4ncccc4c(=O)[nH]3)CC2)cc1` [Example 241, 4-(4-(3-(5-oxo-5,6-dihydro-1,6-naphthyridin-7-yl)propanoyl)piperazin-1-yl)benzonitrile]: the inhibition at 0.001 µM was in the range of 50 to 80%.
For `N#Cc1ccc(N2CCN(C(=O)CCc3cc4ncccc4c(=O)[nH]3)CC2)nc1` [Example 242, 6-(4-(3-(5-oxo-5,6-dihydro-1,6-naphthyridin-7-yl)propanoyl)piperazin-1-yl)nicotinonitrile], the inhibition at 0.001 µM was less than 50%.
Same read-out and setting: as for `N#Cc1ccc(N2CCN(C(=O)CCc3cc4ncccc4c(=O)[nH]3)CC2)cn1` [Example 243, 5-(4-(3-(5-oxo-5,6-dihydro-1,6-naphthyridin-7-yl)propanoyl)piperazin-1-yl)picolinonitrile], the figure is less than 50%; as for `O=C(CCc1cc2ncccc2c(=O)[nH]1)N1CC=C(c2ccc(F)cc2)CC1` [Example 244, 7-(3-(4-(4-fluorophenyl)-3,6-dihydropyridin-1(2H)-yl)-3-oxopropyl)-1,6-naphthyridin-5(6H)-one], less than 50%.
Take `N#Cc1ccc(C2=CCN(C(=O)CCc3cc4ncccc4c(=O)[nH]3)CC2)cc1` [Example 245, 4-(1-(3-(5-oxo-5,6-dihydro-1,6-naphthyridin-7-yl)propanoyl)-1,2,3,6-tetrahydropyridin-4-yl)benzonitrile]: the inhibition at 0.001 µM was less than 50%.
With `N#Cc1ccc(N2CC3CCC(C2)N3C(=O)CCc2cc3ncccc3c(=O)[nH]2)cc1` [Example 246, 4-(8-(3-(5-oxo-5,6-dihydro-1,6-naphthyridin-7-yl)propanoyl)-3,8-diazabicyclo[3.2.1]octan-3-yl)benzonitrile], the inhibition at 0.001 µM was less than 50%.
The same measure, in the same setting: as for `N#Cc1ccc(NC2CCN(CCCc3cc4cccc(F)c4c(=O)[nH]3)CC2)cc1` [Example 247, 4-((1-(3-(8-fluoro-1-oxo-1,2-dihydroisoquinolin-3-yl)propyl)piperidin-4-yl)amino)benzonitrile], the figure is 50 to 80%; as for `N#Cc1ccc(NC2CCN(CCCc3cc4cccc(F)c4c(=O)[nH]3)CC2)cn1` [Example 248, 5-((1-(3-(8-fluoro-1-oxo-1,2-dihydroisoquinolin-3-yl)propyl)piperidin-4-yl)amino)picolinonitrile], less than 50%.
On to `N#Cc1ccc(NC2CCN(CCCc3cc4ccc(F)cc4c(=O)[nH]3)CC2)cc1` [Example 249, 4-((1-(3-(7-fluoro-1-oxo-1,2-dihydroisoquinolin-3-yl)propyl)piperidin-4-yl)amino)benzonitrile], for which the inhibition at 0.001 µM is less than 50%.
For the compound `N#Cc1ccc(NC2CCN(CCCc3cc4ncccc4c(=O)[nH]3)CC2)cc1` [Example 250, 4-((1-(3-(5-oxo-5,6-dihydro-1,6-naphthyridin-7-yl)propyl)piperidin-4-yl)amino)benzonitrile], the inhibition at 0.001 µM was less than 50%.
On the same count and under the same terms, as for `N#Cc1ccc(NC2CCN(CCCc3cc4ncccc4c(=O)[nH]3)CC2)cn1` [Example 251, 5-((1-(3-(5-oxo-5,6-dihydro-1,6-naphthyridin-7-yl)propyl)piperidin-4-yl)amino)picolinonitrile], the figure is less than 50%; as for `COC(=O)c1ccc(NC2CCN(CCCc3cc4ncccc4c(=O)[nH]3)CC2)cc1` [Example 252, methyl 4-((1-(3-(5-oxo-5,6-dihydro-1,6-naphthyridin-7-yl)propyl)piperidin-4-yl)amino)benzoate], less than 50%; as for `O=c1[nH]c(CCCN2CCC(Nc3ccc(C(F)(F)F)cc3)CC2)cc2ncccc12` [Example 253, 7-(3-(4-((4-(trifluoromethyl)phenyl)amino)piperidin-1-yl)propyl)-1,6-naphthyridin-5(6H)-one], less than 50%.
Consider `N#Cc1ccc(OC2CCN(CCCc3cc4cccc(F)c4c(=O)[nH]3)CC2)cc1` [Example 254, 4-((1-(3-(8-fluoro-1-oxo-1,2-dihydroisoquinolin-3-yl)propyl)piperidin-4-yl)oxy)benzonitrile], for which the inhibition at 0.001 µM is less than 50%.
With `N#Cc1ccc(OC2CCN(C(=O)CCc3cc4cccc(F)c4c(=O)[nH]3)CC2)cc1` [Example 255, 4-((1-(3-(8-fluoro-1-oxo-1,2-dihydroisoquinolin-3-yl)propanoyl)piperidin-4-yl)oxy)benzonitrile], the inhibition at 0.001 µM was less than 50%.
On to `N#Cc1ccc(NC2CCN(C(=O)CCc3cc4cccc(F)c4c(=O)[nH]3)CC2)cc1` [Example 256, 4-((1-(3-(8-fluoro-1-oxo-1,2-dihydroisoquinolin-3-yl)propanoyl)piperidin-4-yl)amino)benzonitrile], for which the inhibition at 0.001 µM is less than 50%.
Regarding `CN(c1ccc(C#N)cc1)C1CCN(C(=O)CCc2cc3cccc(F)c3c(=O)[nH]2)CC1` [Example 257, 4-((1-(3-(8-fluoro-1-oxo-1,2-dihydroisoquinolin-3-yl)propanoyl)piperidin-4-yl)(methyl)amino)benzonitrile], the inhibition at 0.001 µM was less than 50%.
On the same count and under the same terms, as for `N#Cc1ccc(NC2CCN(C(=O)CCc3cc4cccc(F)c4c(=O)[nH]3)CC2)cn1` [Example 258, 5-((1-(3-(8-fluoro-1-oxo-1,2-dihydroisoquinolin-3-yl)propanoyl)piperidin-4-yl)amino)picolinonitrile], the figure is less than 50%; as for `Cc1ccc(F)c2c(=O)[nH]c(CCC(=O)N3CCC(Nc4ccc(C#N)cc4)CC3)cc12` [Example 259, 4-((1-(3-(8-fluoro-5-methyl-1-oxo-1,2-dihydroisoquinolin-3-yl)propanoyl)piperidin-4-yl)amino)benzonitrile], less than 50%.
On to `Cc1cc(F)cc2c(=O)[nH]c(CCC(=O)N3CCC(Nc4ccc(C#N)cc4)CC3)cc12` [Example 260, 4-((1-(3-(7-fluoro-5-methyl-1-oxo-1,2-dihydroisoquinolin-3-yl)propanoyl)piperidin-4-yl)amino)benzonitrile], for which the inhibition at 0.001 µM is less than 50%.
In the case of `Cc1ccc(F)c2c(=O)[nH]c(CCC(=O)N3CCC(Oc4ccc(C#N)cc4)CC3)cc12` [Example 261, 4-((1-(3-(8-fluoro-5-methyl-1-oxo-1,2-dihydroisoquinolin-3-yl)propanoyl)piperidin-4-yl)oxy)benzonitrile], the inhibition at 0.001 µM is less than 50%.
As for `Cc1cc(F)cc2c(=O)[nH]c(CCC(=O)N3CCC(Oc4ccc(C#N)cc4)CC3)cc12` [Example 262, 4-((1-(3-(7-fluoro-5-methyl-1-oxo-1,2-dihydroisoquinolin-3-yl)propanoyl)piperidin-4-yl)oxy)benzonitrile], the inhibition at 0.001 µM is less than 50%.
Still for that read-out and setting: as for `Cc1cc(F)cc2c(=O)[nH]c(CCC(=O)N3CCC(Nc4ccc(Cl)cc4)CC3)cc12` [Example 263, 3-(3-(4-((4-chlorophenyl)amino)piperidin-1-yl)-3-oxopropyl)-7-fluoro-5-methylisoquinolin-1(2H)-one], the figure is less than 50%; as for `Cc1ccc(F)c2c(=O)[nH]c(CCC(=O)N3CCC(Nc4ccc(Cl)cc4)CC3)cc12` [Example 264, 3-(3-(4-((4-chlorophenyl)amino)piperidin-1-yl)-3-oxopropyl)-8-fluoro-5-methylisoquinolin-1(2H)-one], less than 50%.
As to `Cc1cc(F)cc2c(=O)[nH]c(CCC(=O)N3CCC(Nc4ccc(C(F)(F)F)cc4)CC3)cc12` [Example 265, 7-fluoro-5-methyl-3-(3-oxo-3-(4-((4-(trifluoromethyl)phenyl)amino)piperidin-1-yl)propyl)isoquinolin-1(2H)-one], the inhibition at 0.001 µM was less than 50%.
In the case of `Cc1ccc(F)c2c(=O)[nH]c(CCC(=O)N3CCC(Nc4ccc(C(F)(F)F)cc4)CC3)cc12` [Example 266, 8-fluoro-5-methyl-3-(3-oxo-3-(4-((4-(trifluoromethyl)phenyl)amino)piperidin-1-yl)propyl)isoquinolin-1(2H)-one], the inhibition at 0.001 µM was less than 50%.
Regarding `COC(=O)c1ccc(NC2CCN(C(=O)CCc3cc4c(C)cc(F)cc4c(=O)[nH]3)CC2)cc1` [Example 267, methyl 4-((1-(3-(7-fluoro-5-methyl-1-oxo-1,2-dihydroisoquinolin-3-yl)propanoyl)piperidin-4-yl)amino)benzoate], the inhibition at 0.001 µM is less than 50%.
On to `COC(=O)c1ccc(NC2CCN(C(=O)CCc3cc4c(C)ccc(F)c4c(=O)[nH]3)CC2)cc1` [Example 268, methyl 4-((1-(3-(8-fluoro-5-methyl-1-oxo-1,2-dihydroisoquinolin-3-yl)propanoyl)piperidin-4-yl)amino)benzoate], for which the inhibition at 0.001 µM is less than 50%.
Same read-out and setting: then `Cc1ccc(F)c2c(=O)[nH]c(CCC(=O)N3C4CCC3CC(O)C4)cc12` (stereo not shown) [Example 269, 8-fluoro-3-(3-(3-hydroxy-8-azabicyclo[3.2.1]octan-8-yl)-3-oxopropyl)-5-methylisoquinolin-1(2H)-one], with less than 50%.
In the case of `Cc1ccc(F)c2c(=O)[nH]c(CCC(=O)N3CCC(O)CC3)cc12` [Example 270, 8-fluoro-3-(3-(4-hydroxypiperidin-1-yl)-3-oxopropyl)-5-methylisoquinolin-1(2H)-one], the inhibition at 0.001 µM is less than 50%.
`O=c1[nH]c(CCCN2C3CCC2CC(O)C3)cc2ncccc12` (stereo not shown) [Example 271, 7-(3-(3-hydroxy-8-azabicyclo[3.2.1]octan-8-yl)propyl)-1,6-naphthyridin-5(6H)-one]: the inhibition at 0.001 µM is less than 50%.
Consider `O=c1[nH]c(CCCN2C3CCC2CC(O)C3)cc2cccc(F)c12` (stereo not shown) [Example 272, 8-fluoro-3-(3-(3-hydroxy-8-azabicyclo[3.2.1]octan-8-yl)propyl)isoquinolin-1(2H)-one], for which the inhibition at 0.001 µM was 50 to 80%.
Turning to `N#Cc1ccc(OC2CC3CCC(C2)N3CCCc2cc3cccc(F)c3c(=O)[nH]2)cc1` (stereo not shown) [Example 273, 4-((8-(3-(8-fluoro-1-oxo-1,2-dihydroisoquinolin-3-yl)propyl)-8-azabicyclo[3.2.1]octan-3-yl)oxy)benzonitrile], the inhibition at 0.001 µM was less than 50%.

Still in this assay, the particulars now being: PARP-1 enzyme activity.
In turn, `N#Cc1ccc(N2CCN(C(=O)CCc3cc4ncccc4c(=O)[nH]3)CC2)cc1` [Example 241, 4-(4-(3-(5-oxo-5,6-dihydro-1,6-naphthyridin-7-yl)propanoyl)piperazin-1-yl)benzonitrile] came in with a half-maximal inhibitory concentration (IC50) of 4.92 nM. This counts as single-digit nanomolar.
On to `N#Cc1ccc(N2CCN(C(=O)CCc3cc4ncccc4c(=O)[nH]3)CC2)nc1` [Example 242, 6-(4-(3-(5-oxo-5,6-dihydro-1,6-naphthyridin-7-yl)propanoyl)piperazin-1-yl)nicotinonitrile], for which the IC50 is 3.18 nM.
Same read-out and setting: as for `COC(=O)c1ccc(NC2CCN(C(=O)CCc3cc4c(C)ccc(F)c4c(=O)[nH]3)CC2)cc1` [Example 268, methyl 4-((1-(3-(8-fluoro-5-methyl-1-oxo-1,2-dihydroisoquinolin-3-yl)propanoyl)piperidin-4-yl)amino)benzoate], the figure is 8.59 nM; as for `O=c1[nH]c(CCCN2C3CCC2CC(O)C3)cc2cccc(F)c12` (stereo not shown) [Example 272, 8-fluoro-3-(3-(3-hydroxy-8-azabicyclo[3.2.1]octan-8-yl)propyl)isoquinolin-1(2H)-one], 3.27 nM.

For orientation: IC50 means the concentration that inhibits the measured activity by half.

These data come from patent US12459899B2, “Isoquinolinone derivatives, method for preparing the same, and pharmaceutical composition for preventing or treating poly(ADP-ribose) polymerase-1-related diseases, comprising the same as active ingredient” (DIGMBIO. INC., priority 2019, dated 2025).
